In a melting point compilation (Tetko et al.; mined from patent text by program, amines drawn as free bases though some values may be those of a salt):

With `CC1(C)C2CC[C@@]1(C)C(C(=O)N1C(=O)OC(C#CC3CC3)(C(F)(F)F)c3cc(Cl)ccc31)C2` (some centres undefined) the melting point was 164 to 165 °C.
`CC(C)n1nc(-c2nc(Br)c(N=S(C)C)nc2-c2ccccc2)ccc1=O` gave a melting point of 220 to 224 °C.
`C=CC(=O)OCc1cn(CCCCCCCCCCCC)nn1` gave a melting point of 50 to 52 °C.
Compound `CC(C)(C)[Si](C)(C)N1C(=O)C(C(Cc2ccccc2)OC=O)C1SC(c1ccccc1)(c1ccccc1)c1ccccc1` (centres undefined) has a melting point of 172 to 173 °C.
For `COc1c([N+](=O)[O-])ccc(N)c1Cl`, the melting point was 118 to 123 °C.
`Cc1ccc(-c2coc3c(O)c(O)ccc3c2=O)cc1` showed a melting point of 225 °C.
Work on `CCOC(=O)c1ccc(N2CCN(Cc3cc(C)c4c(c3)NC(=O)C(C)O4)CC2)nc1` (centres undefined) yielded a melting point of 206 °C.
For `c1ccc2c(c1)nnn2C(n1nnc2ccccc21)n1nnc2ccccc21`, the melting point was 194 to 195 °C.
Work on `COc1ccc2c(=O)cc(C(=O)N[C@H]3CCN(C(=O)c4cc(C(F)(F)F)cc(C(F)(F)F)c4)[C@H](Cc4ccc(Cl)cc4)C3)oc2c1` yielded a melting point of 198 to 200 °C.
In the case of `CC(C)Nc1cccnc1N1CCN(C(=O)c2ccc(C(=O)N[C@H](CO)c3ccccc3)cc2)CC1`, the melting point is reported as 93 to 95 °C.
With `Nc1ccc(-c2n[nH]c3c2sc2ccccc23)cc1` the melting point was 113 to 115 °C.
`CC[C@@]12C[C@H](O)[C@](O)(c3c(F)cccc3F)C[C@H]1CCc1cc(OCc3cccnc3C)ccc12` showed a melting point of 80 to 83 °C.
`COc1ccc(OCCOc2ccc(C(=O)C(=O)O)cc2)cc1` showed a melting point of 138 to 139 °C.
Work on `Clc1ccc(CCC(Cn2ccnc2)Sc2c(Cl)cc(Cl)cc2Cl)cc1` (centres undefined) yielded a melting point of 132 °C.
Compound `CS(=O)(=O)Cc1cc(C(O)CNCCCCCCNCC(O)c2ccc(OCc3ccccc3)c(CS(C)(=O)=O)c2)ccc1OCc1ccccc1` (centres undefined) has a melting point of 146 to 148 °C.
In the case of `Cc1cc2c(c(C)c1C)OCC2`, the melting point is reported as < 50 °C.
With `COC(=O)[C@@H]1COC(c2ncn3c2CN(C)C(=O)c2sccc2-3)=N1` the melting point was 215 to 217 °C.
For `O=C(NC1CC(=O)c2ccccc2C1)OCc1ccccc1` (centres undefined), the melting point was 79.5 to 81.5 °C.
With `NC(=O)CN1C(=O)[C@@H](NC(=O)[C@@H]2CCC(=O)C2)[C@H](c2ccccc2)Sc2ccccc21` the melting point was 135 to 150 °C.
Work on `O=C(O)CCC(=NO)c1ccc2c3c(oc2c1)CCCC3` yielded a melting point of 148 to 150 °C.
`CC12CCC3C(CCC4CC(=O)CCC43CO[Si](C)(C)C(C)(C)C)C1CCC2=O` (centres undefined) showed a melting point of 130 to 132 °C.
Compound `CC1=C(C(=O)OC(C)(C)C)C(c2cccc([N+](=O)[O-])c2)N(C(=O)N(C)C)C(=O)N1` (centres undefined) has a melting point of 187 to 188 °C.
`CCCc1cc2ccccn2c1C(=O)c1ccc(O)c(Cl)c1` gave a melting point of 165 °C.
In the case of `CNC(=O)Cc1cc(=O)oc2cc(OCc3cccc(Cl)c3)ccc12`, the melting point is reported as 174 to 175 °C.
`C=C1N(C)C(=O)OC12CCN(Cc1ccccc1)CC2` gave a melting point of 96 to 97 °C.
With `COc1ccc2c(c1OC)C(=O)O[C@@H]2[C@H]1c2c(c(I)c3c(c2OC)OCO3)CCN1C` the melting point was 172 to 173 °C.
For `Cc1ccc(OCc2ccccc2)c(C(CCO)c2ccccc2)c1` (centres undefined), the melting point was 69 to 71 °C.
In the case of `CC(=O)S[C@@H]1C[C@@H](C(=O)N(CCc2ccccc2)CC(=O)O)N(S(=O)(=O)c2ccc3ccccc3c2)C1`, the melting point is reported as 190 to 193 °C.
With `C=CCc1cc(C(=O)OC(C)C)ccc1O` the melting point was 79 to 80 °C.
For `O=c1cc(O)c2cccnc2n1-c1ccccc1`, the melting point was 311 to 313 °C.
For `Cc1ccc(C)n1-c1cc2[nH]c(=O)c(=O)n(CC(=O)NCc3ccccc3)c2cc1Cl`, the melting point was 244 °C.
`Cc1cc(F)ccc1-c1cc(NCCNC(=O)NC2CCCCC2)nc2c1C=NC(=O)C2c1c(F)cccc1F` (centres undefined) showed a melting point of 178 to 183 °C.
Compound `O[C@H](CCl)CN=Cc1ccccc1` has a melting point of 46 °C.
`Cc1cc(C2=NOC(c3cc(Cl)cc(Cl)c3)(C(F)(F)F)C2)ccc1C(=O)Nc1ncc(Br)cn1` (centres undefined) showed a melting point of 178 to 181 °C.
`COCCc1nc2c(N)nc3ccccc3c2n1CC1(O)CCOCC1` showed a melting point of 205 to 206 °C.
For `CC(C)n1cc(-c2nc(C#N)c(N)nc2-c2cccc(F)c2)ccc1=O`, the melting point was 211 °C.
In the case of `CC1(C)Cc2sccc2C1N=CNC#N` (centres undefined), the melting point is reported as 118 to 119 °C.
`Cc1cc(F)cc2c1CC/C2=C\C(N)=O` gave a melting point of 178 to 180 °C.
In the case of `Cc1ccc(S(=O)(=O)OCC2Cc3cccc(-c4cccc(C)c4)c3O2)cc1` (centres undefined), the melting point is reported as 81 to 82 °C.
`COc1ccc2ccc3c(c2c1)CC(C(=O)O)CO3` (centres undefined) gave a melting point of 165 °C.
`CC(C)(C)NCCOp1oc2c(C(C)(C)C)cc(C(C)(C)C)cc2c2cc(C(C)(C)C)cc(C(C)(C)C)c2o1` showed a melting point of 135 to 138 °C.
Compound `COc1ccc(-c2cc(F)ccc2C#N)cc1` has a melting point of 145 to 147 °C.
Work on `O=C(O)C1(Cc2ccccc2)CCN(Cc2ccccc2)C1` (centres undefined) yielded a melting point of 209 to 210 °C.
In the case of `Cc1ccncc1Cn1nnnc1-c1cccc(Cl)c1Cl`, the melting point is reported as 154 to 156 °C.
Work on `CCCCc1nc2c(N)nc3cc(-c4ccccc4)ccc3c2n1CCCS(C)(=O)=O` yielded a melting point of 214 to 216 °C.
Work on `CC(C)(C)c1ccc(CC2CCN(C(=O)C(=O)Nc3ccc4[nH]c(=O)oc4c3)CC2)cc1` yielded a melting point of 168 °C.
With `CC(C)(O)CCCCc1ccc2ccccc2c1O` the melting point was 101 to 102 °C.
For `CCOP(=O)(/C=C/c1cn(-c2ccccc2)nc1OCc1ccc(OCc2coc(-c3ccco3)n2)c(OC)c1)OCC`, the melting point was 96 to 97 °C.
Compound `Cc1ccc(S(=O)(=O)NN=CC(=O)Cl)cc1` has a melting point of 100 to 110 °C.
With `COc1ccc2c(c1)COc1c-2ccc2cc(OC)ccc12` the melting point was 175 to 178 °C.
`CCOC(=O)c1cc2n(c1)CN(CCC#N)c1c(OC)cccc1-2` gave a melting point of 146 to 147 °C.
With `O=C(Cc1ccccc1)N[C@@H]1C(=O)N[C@@H]1SCC(=O)c1ccccc1` the melting point was 160 to 162 °C.
Compound `COc1ccc(N(C)c2nc(C)nc3oc(C)cc23)cc1` has a melting point of 108 to 109 °C.
Work on `Cc1cc(CC(=O)NCc2cccc3c2C(=O)N(C2CCC(=O)NC2=O)C3=O)c(C)o1` (centres undefined) yielded a melting point of 193 to 195 °C.
For `N#Cc1cc(-c2ccoc2)c2ccc(COc3cc(F)cc(-c4ccc(F)cc4)c3)cc2n1`, the melting point was 177 to 180 °C.
Work on `O=C(CCl)Nc1ccc2c(c1NC(=O)c1cccc(F)c1)C(=O)c1ccccc1C2=O` yielded a melting point of 197 to 198 °C.
In the case of `CC(=O)c1ccc2[nH]c(C(=O)c3ccc(Cl)cc3)c(CC(=O)O)c2c1`, the melting point is reported as 225 °C.
Compound `Cn1cc(C(=O)Nc2ccccc2-c2ccc(Cl)c(Cl)c2)c(C(F)(F)F)n1` has a melting point of 131 to 133 °C.
`CCOC(=O)C1=C(C)NC(c2cnc(Cl)s2)=NC1c1ccc(F)cc1Cl` (centres undefined) gave a melting point of 159 to 162 °C.
Compound `CC(=O)Oc1cc(C)cc(C2(CC#N)N=NC=C2c2cc(NCC(C)OC(C)=O)nc(-c3cccnc3)n2)c1` (centres undefined) has a melting point of 230 °C.
Compound `CC(C)(C)NC(=O)[C@@H]1CC(Cl)CN1C(=O)C(O)[C@H](Cc1ccccc1)NC(=O)[C@H](CC(N)=O)NC(=O)COc1ccc(NC(=O)OCc2ccccc2)cc1` (some centres undefined) has a melting point of 113 to 115 °C.
`COC(=O)C(=NO)c1nc2c(C)c(Cl)ccc2oc1=O` gave a melting point of 190 to 191 °C.
With `COCCc1nnc(NC(=O)C2c3ccccc3Oc3ccccc32)o1` the melting point was 105 to 106 °C.
For `N#Cc1ccc(N2C(=O)N(CCF)C(CF)(CF)C2=O)cc1C(F)(F)F`, the melting point was 136 to 137 °C.
With `CC(=O)C1c2cccc(O)c2C(=O)c2c(O)cccc21` the melting point was 146 °C.
`CCn1c(=O)c2c(nc(/C=C/c3ccc(OCOC)c(OC)c3)n2C)n(CC)c1=O` gave a melting point of 179 to 181 °C.
With `CSCc1cn(C)c2ccc(Cl)cc2c1=O` the melting point was 148 to 150 °C.
With `CN(CCc1ccc(Nc2ncc3c(n2)-c2ccccc2C(c2cccc(Br)c2)C3)cc1)CCc1ccccn1` (centres undefined) the melting point was 75 to 77 °C.
Work on `CC(=O)OCCN1CCSc2ccc(Nc3ncc(Cl)c(N[C@@H]4CCCC[C@H]4NS(C)(=O)=O)n3)cc2C1` yielded a melting point of 85 to 90 °C.
Work on `COc1ccc(-n2c(=O)cc(C(F)(F)F)n(N)c2=O)cc1` yielded a melting point of 176 to 178 °C.
With `Cc1nc(NC(=O)NS(=O)(=O)c2ccccc2C(=O)O)nc2c1CCC2` the melting point was 183 to 184 °C.
For `COc1ccc(-c2c(CO)cc(OC)c(OC)c2OC)c(CO)c1OS(C)(=O)=O`, the melting point was 124 to 126 °C.
For `OCC(O)CNc1nc(-c2ccc(Cl)c(Cl)c2)nc2ccccc12` (centres undefined), the melting point was 162 to 164 °C.
`CCOC(=O)C(C#N)=NOC(=O)OCC(C)C` gave a melting point of 60 to 62 °C.
For `O=C1c2cc3nnn(Cc4nc5ccccc5s4)c(=O)c3cc2OC2CCCN12` (centres undefined), the melting point was 224 to 227 °C.
Work on `O=c1[nH]c2cc(Cl)c(Cl)cc2[n+]([O-])c1-c1cccc(Oc2ccccc2)c1` yielded a melting point of 258 to 260 °C.
Work on `CCCc1nc2cc3c(cc2[nH]1)NC(=O)C3(C)C` yielded a melting point of 284 to 285 °C.
Work on `COc1cc2c(cc1OCc1ccccc1)CCN(Cc1ccccc1)C2` yielded a melting point of 97 to 98 °C.
Compound `O=C(c1ccccc1)n1c2cc(O)c(O)cc2c2ccc(O)c(O)c21` has a melting point of 242 to 243 °C.
With `CC(C)(Oc1cccc(OCCCc2cn(-c3ccc(C(F)(F)F)cn3)nc2-c2ccccc2)c1)C(=O)O` the melting point was 141 to 142 °C.
In the case of `Cc1cc(C)cc(S(=O)(=O)c2cccc(F)c2C#N)c1`, the melting point is reported as 167 to 168 °C.
Compound `NS(=O)(=O)NC(=O)N1C[C@H](NC(=O)Cc2ccccc2)C1=O` has a melting point of 137 °C.
Work on `COc1ccc(S(=O)(=O)C(C)(Cc2ccc(OCCN3CCCCC3)cc2)C(N)=O)cc1` (centres undefined) yielded a melting point of 98 °C.
In the case of `CCCn1cc(C(=O)OCC)c(=O)c2cc(CN3CCOCC3)oc21`, the melting point is reported as 195 to 196 °C.
For `CP1(=O)c2ccccc2CN1c1ccc(Br)cc1` (centres undefined), the melting point was 135 to 136 °C.
`CNC(=O)c1ccc(Nc2cc(-n3ccc(C(F)(F)F)n3)c3ccccc3n2)cc1` showed a melting point of 250 to 252 °C.
With `CCCCCCCCCCc1ccc(C(=O)O[C@@H]2CC[C@H](NC(=O)[C@H](OC)[C@H](O)[C@@H](O)[C@H](O)/C=C/C(C)(C)C)C(=O)NC2)cc1` the melting point was 60 to 64 °C.
`COC(=O)C(C(=O)OC)C(Cc1cc(Cl)ccc1[N+](=O)[O-])c1ccc(OC)cc1` (centres undefined) gave a melting point of 117 to 120 °C.
Work on `N#CCCn1cnc2ccccc21` yielded a melting point of 108 to 110 °C.
In the case of `Cn1ncc(C(=O)N2CCS(=O)(=O)CC2)c1C(=O)Nc1ccn2nc(-c3ccccc3)nc2c1`, the melting point is reported as > 250 °C.
Work on `N#CC1CN(C(=O)[C@H](NC(=O)c2c[nH]c3ncc(-c4ccc(C(F)(F)F)cc4)nc23)C2CC2)C1` yielded a melting point of 207 to 209 °C.
With `COc1ccc2cc(-c3ccc(OCC(O)CNC(C)C)c(OC)c3)n(C)c(=O)c2c1` (centres undefined) the melting point was 144 to 146 °C.
Work on `Cc1nsnc1-c1cccnc1` yielded a melting point of 55 to 57 °C.
For `CCO/C(=C\c1ccc(OCCc2ccc(OCC)cc2)c(OC)c1)C(=O)O`, the melting point was 121 °C.
